{
  "source": "patent US4973675A",
  "about": "“Hybrid nitrosoureidoanthracyclines having antitumor activity” (University of Tennessee Research Center, priority 1989, dated 1990)",
  "key": {"[1]": {"test_system": "red blood cells", "assay": "Hematotoxicity study in non-tumor-bearing animals, red blood cell count", "type": "in vivo, mice", "settings": "3 dose levels", "excerpt": "Clinically and in laboratory animals, anthracycline antibiotics and chloroethylnitrosourea alkylating agents currently used in medical oncology are known to be strongly myelosuppressive, with the effects of the alkylating agents on suppression of bone marrow activity being particularly profound and long-lasting."}, "[2]": {"test_system": "DNA topoisomerase II", "assay": "Drug-stimulated topoisomerase II-mediated DNA cleavage assay (end-labeled PMC41 DNA)", "type": "biochemical", "settings": "summary of biochemical studies"}, "[3]": {"assay": "Solubility in water or saline", "type": "physicochemical", "procedure": "Accordingly, the compounds are formulated for administration by dissolving the compound in a pharmaceutically acceptable non-toxic carrier which contains a surfactant. The present inventors employ a formulation of 10% Cremaphor EL (a polyhydroxylated castor oil derivative) available from BASF Chemicals, 10% ethanol and 80% aqueous media (sterile water or saline solution). That quantity of the compound desired for establishing an effective dose is dissolved in a 1:1 mixture of Cremaphor EL and ethanol. Thereafter, sufficient aqueous medium is added with stirring to develop a final formulation containing 80% aqueous medium. This formulation is administered parenterally."}, "[4]": {"test_system": "murine P388/adriamycin-resistant leukemia", "assay": "In vivo antitumor activity vs. murine P388/adriamycin-resistant leukemia (P388/ADR)", "settings": "for Median increase in lifespan / Net mean percent weight change, day 7 / Long-term survivors / Range of death (dying animals): ip; for Long-term survivors: sacrifice day 60", "description": "Assays were run essentially according to the established protocols of the U.S. National Cancer Institute (Geran et al., 1972 \"Protocols for Screening Chemical Agents and Natural Products Against Animal Tumors and Other Biological Systems\" (3rd Ed.), Cancer Chemotherapy Rep. [3]33, 1-103.), with the test agent given at 3-5 incremental dose levels in each screening experiment and with median survival of treated groups referenced against data for untreated controls.\n*B6D2F1 males; 1 × 10^6 tumor cell inoculum ip day 0; treatment"}, "[5]": {"settings": "P388/ADR, single dose 40.5 mg/kg day 1"}},
  "note": "Like-named read-outs stand apart in the source and are kept apart here.",
  "data": [
    {"smiles": "COc1cccc2c1C(=O)c1c(O)c3c(c(O)c1C2=O)C[C@@](O)(C(C)=O)C[C@@H]3O[C@H]1C[C@H](NC(=O)N(CCCl)N=O)[C@H](O)[C@H](C)O1", "note": "[AD 312, 2-chloroethylnitrosoureidodaunorubicin]", "values": [
      {"measurement": "change in red blood cell counts", "setting": "[1]", "value": "No significant change in red blood cells counts"},
      {"measurement": "DNA topoisomerase II-inhibitory and alkylating activity", "setting": "[2]", "value": "clearly establish the DNA topoisomerase II-inhibitory activity and alkylating activity"},
      {"measurement": "solubility", "setting": "[3]; water or saline solution", "value": "essentially insoluble in water or saline solution"},
      {"measurement": "solubility", "setting": "[3]; water, of the order of, read-out: solubility in water", "value": "< 25", "unit": "µg/mL"},
      {"measurement": "curative rate", "setting": "[4]; P388/ADR, once daily for 4 days, 15.0 to 20.0 mg/kg/day (3 dose levels)", "value": 100, "unit": "%"},
      {"measurement": "dose toxicity", "setting": "[4]; [5]", "value": "nontoxic"},
      {"measurement": "therapeutic effect", "setting": "[4]; [5]", "value": "significant therapeutic effect"},
      {"measurement": "Median increase in lifespan", "setting": "[4]; 15.0 mg/kg qd 1-4", "value": "> +500%"},
      {"measurement": "Net mean percent weight change, day 7", "setting": "[4]; 15.0 mg/kg qd 1-4", "value": -4, "unit": "%"},
      {"measurement": "Long-term survivors", "setting": "[4]; 15.0 mg/kg qd 1-4", "value": "7/7"},
      {"measurement": "Median increase in lifespan", "setting": "[4]; 17.5 mg/kg qd 1-4", "value": "> +500%"},
      {"measurement": "Net mean percent weight change, day 7", "setting": "[4]; 17.5 mg/kg qd 1-4", "value": -9, "unit": "%"},
      {"measurement": "Long-term survivors", "setting": "[4]; 17.5 mg/kg qd 1-4", "value": "7/7"},
      {"measurement": "Median increase in lifespan", "setting": "[4]; 20.0 mg/kg qd 1-4", "value": "> +500%"},
      {"measurement": "Net mean percent weight change, day 7", "setting": "[4]; 20.0 mg/kg qd 1-4", "value": -9, "unit": "%"},
      {"measurement": "Long-term survivors", "setting": "[4]; 20.0 mg/kg qd 1-4", "value": "7/7"},
      {"measurement": "Median increase in lifespan", "setting": "[4]; 27.0 mg/kg d1 only", "value": "> +500%"},
      {"measurement": "Net mean percent weight change, day 7", "setting": "[4]; 27.0 mg/kg d1 only", "value": "+5%"},
      {"measurement": "Range of death (dying animals)", "setting": "[4]; 27.0 mg/kg d1 only", "value": "19,26 days"},
      {"measurement": "Long-term survivors", "setting": "[4]; 27.0 mg/kg d1 only", "value": "5/7"},
      {"measurement": "Median increase in lifespan", "setting": "[4]; 40.5 mg/kg d1 only", "value": "> +500%"},
      {"measurement": "Net mean percent weight change, day 7", "setting": "[4]; 40.5 mg/kg d1 only", "value": -0.5, "unit": "%"},
      {"measurement": "Range of death (dying animals)", "setting": "[4]; 40.5 mg/kg d1 only", "value": "13,27 days"},
      {"measurement": "Long-term survivors", "setting": "[4]; 40.5 mg/kg d1 only", "value": "5/7"}
    ]}
  ]
}
